Reference: US9090600B2, “Fungicidal 4-substituted-3-{phenyl[(heterocyclylmethoxy)imino]methyl}-1,2,4-oxadizol-5(4H)-one derivatives” (BAYER INTELLECTUAL PROPERTY GMBH, priority 2011, dated 2015)
Where two headings read alike, the source gives them in different places. Marks after values point to notes of the source that are not given here.

Legend:
Phytophthora infestans [1] = type: in vivo; details: tomato, preventive spray, 100 ppm of active ingredient, evaluated 7 days after inoculation
Plasmopara viticola = test: Plasmopara test (grapevines)/preventive; type: in vivo; details: preventive spray, 10 ppm of active ingredient, evaluated 6 days after inoculation
Description: Solvent: 24.5 parts by weight of acetone • 24.5 parts by weight of dimethylacetamide
Emulsifier: 1 part by weight of alkylaryl polyglycol ether
To produce a suitable preparation of active compound, 1 part by weight of active compound is mixed with the stated amounts of solvent and emulsifier, and the concentrate is diluted with water to the desired concentration.
To test for preventive activity, young plants are sprayed with the preparation of active compound at the stated rate of application. After the spray coating has dried on, the plants are inoculated with an aqueous spore suspension of Plasmopara viticola and then remain for 1 day in an incubation cabinet at approximately 20° C. and a relative atmospheric humidity of 100%. The plant is subsequently placed for 4 days in a greenhouse at approximately 21° C. and a relative atmospheric humidity of approximately 90%. The plants are then misted and placed for 1 day in an incubation cabinet.
The test is evaluated 6 days after the inoculation. 0% means an efficacy which corresponds to that of the untreated control, while an efficacy of 100% means that no disease is observed.

[2] = pH 2.7
Phytophthora infestans [3] = type: in vivo; details: tomato plants, spray, 500 ppm, grading 5 days after contamination

Cn1c(/C(=N\OCc2cccc(NC(=O)OCCC3CCCCC3)n2)c2ccccc2)noc1=O [Example 5]
Eff. % (Phytophthora infestans [1]): 95%
Eff. % (Plasmopara viticola): 88%
LogP [2]: 5.27 [a]

Cn1c(/C(=N\OCc2cccc(NC(=O)OCCc3ccccc3)n2)c2ccccc2)noc1=O [Example 7]
Eff. % (Phytophthora infestans [1]): 95%
Eff. % (Plasmopara viticola): 96%
LogP [2]: 4.15 [a]

CCCCCCC(=O)Nc1nc(CO/N=C(/c2ccccc2)c2noc(=O)n2C)cs1 [Example 9]
Eff. % (Phytophthora infestans [1]): 95%
Eff. % (Plasmopara viticola): 94%
LogP [2]: 4.13 [a]

Cn1c(/C(=N\OCc2csc(NC(=O)C3COc4ccccc4O3)n2)c2ccccc2)noc1=O (stereo not drawn) [Example 10]
Eff. % (Phytophthora infestans [1]): 95%
Eff. % (Plasmopara viticola): 96%
LogP [2]: 3.62 [a]

CCCCCOC(=O)Nc1cccc(CO/N=C(\c2ccccc2)c2noc(=O)n2C)n1 [Example 26]
Eff. % (Phytophthora infestans [1]): 93%
LogP [2]: 4.24 [a]

C#CCCOC(=O)Nc1cccc(CO/N=C(/c2ccccc2)c2noc(=O)n2C(F)F)n1 [Example 58]
Eff. % (Phytophthora infestans [1]): 80%
LogP [2]: 3.64 [a]

C#CCCOC(=O)Nc1cccc(CO/N=C(/c2ccccc2)c2noc(=O)n2CC#N)n1 [Example 70]
Eff. % (Phytophthora infestans [1]): 84%
LogP [2]: 3.31 [a]

Cc1cccc(OC(C)C(=O)Nc2nc(CO/N=C(/c3ccccc3)c3noc(=O)n3C)cs2)c1 (stereo not drawn) [Example 80]
Eff. % (Phytophthora infestans [3]): 98%
Eff. % (Plasmopara viticola): 98%
LogP [2]: 3.99 [a]

Cn1c(/C(=N\OCc2cccc(NC(=O)C3Cc4ccccc4CO3)n2)c2ccccc2)noc1=O (stereo not drawn) [Example 85]
Eff. % (Phytophthora infestans [3]): 99%
Eff. % (Plasmopara viticola): 73%
LogP [2]: 4.17 [a]

C#CCCOC(=O)Nc1cccc(CO/N=C(/c2ccccc2)c2noc(=O)n2CC#C)n1 [Example 86]
Eff. % (Phytophthora infestans [1]): 90%
LogP [2]: 3.46 [a]

CC(C)CCC(=O)Nc1cccc(CO/N=C(/c2ccccc2)c2noc(=O)n2C)n1 [Example 102]
Eff. % (Phytophthora infestans [3]): 100%
Eff. % (Plasmopara viticola): 91%
LogP [2]: 3.85 [a]

CCn1c(/C(=N\OCc2cccc(NC(=O)OC(C)(C)C)n2)c2ccccc2)noc1=O [Example 152]
Eff. % (Phytophthora infestans [3]): 95%
Eff. % (Plasmopara viticola): 70%
LogP [2]: 4.26 [a]

Cn1c(/C(=N\OCc2csc(NC(=O)C(C)(C)C)n2)c2ccccc2)noc1=O [Example 154]
Eff. % (Phytophthora infestans [1]): 95%
LogP [2]: 3.42 [a]

Cn1c(/C(=N\OCc2cccc(NC(=O)CCC3(C)CC3)n2)c2ccccc2)noc1=O [Example 166]
Eff. % (Phytophthora infestans [3]): 99%
Eff. % (Plasmopara viticola): 95%
LogP [2]: 3.87 [a]

Cn1c(/C(=N\OCc2cccc(NC(=O)CC3CCCCC3)n2)c2ccccc2)noc1=O [Example 208]
Eff. % (Phytophthora infestans [3]): 100%
Eff. % (Plasmopara viticola): 91%
LogP [2]: 4.26 [a]

CCCCOCC(=O)Nc1cccc(CO/N=C(/c2ccccc2)c2noc(=O)n2C)n1 [Example 240]
Eff. % (Phytophthora infestans [3]): 100%
Eff. % (Plasmopara viticola): 80%
LogP [2]: 3.97 [a]

CCCCC(C)C(=O)Nc1cccc(CON=C(c2ccccc2)c2noc(=O)n2C)n1 (stereo not drawn) [Example 244]
Eff. % (Phytophthora infestans [3]): 99%
Eff. % (Plasmopara viticola): 86%
LogP [2]: 4.2 [a]

Cn1c(/C(=N\OCc2cccc(NC(=O)c3cccc(I)c3)n2)c2ccccc2)noc1=O [Example 281]
Eff. % (Phytophthora infestans [3]): 97%
Eff. % (Plasmopara viticola): 97%
LogP [2]: 4.31 [a]

CCCCC(CC)C(=O)Nc1cccc(CO/N=C(/c2ccccc2)c2noc(=O)n2C)n1 (stereo not drawn) [Example 284]
Eff. % (Phytophthora infestans [3]): 95%
Eff. % (Plasmopara viticola): 79%
LogP [2]: 4.49 [a]

CC1c2ccccc2COC1C(=O)Nc1cccc(CO/N=C(/c2ccccc2)c2noc(=O)n2C)n1 (stereo not drawn) [Example 291]
Eff. % (Phytophthora infestans [3]): 100%
Eff. % (Plasmopara viticola): 77%
LogP [2]: 4.35 [a]

C#CCCCC(=O)Nc1cccc(CO/N=C(/c2ccccc2)c2noc(=O)n2C)n1 [Example 302]
Eff. % (Phytophthora infestans [3]): 100%
Eff. % (Plasmopara viticola): 92%
LogP [2]: 3.17 [a]

Cc1ccc(OC(C)C(=O)Nc2nc(CO/N=C(/c3ccccc3)c3noc(=O)n3C)cs2)cc1 (stereo not drawn) [Example 312]
Eff. % (Phytophthora infestans [3]): 94%
Eff. % (Plasmopara viticola): 95%
LogP [2]: 4.02 [a]

COc1cccc(OCC(=O)Nc2nc(CO/N=C(/c3ccccc3)c3noc(=O)n3C)cs2)c1 [Example 318]
Eff. % (Phytophthora infestans [3]): 99%
Eff. % (Plasmopara viticola): 93%
LogP [2]: 3.53 [a]

CC(Oc1cccc(Cl)c1)C(=O)Nc1nc(CO/N=C(/c2ccccc2)c2noc(=O)n2C)cs1 (stereo not drawn) [Example 321]
Eff. % (Phytophthora infestans [3]): 97%
Eff. % (Plasmopara viticola): 82%
LogP [2]: 4.1 [a]

CCC(Oc1ccccc1)C(=O)Nc1nc(CO/N=C(/c2ccccc2)c2noc(=O)n2C)cs1 (stereo not drawn) [Example 322]
Eff. % (Phytophthora infestans [1]): 75%
LogP [2]: 3.99 [a]

Cc1ccc(C)c(C(=O)Nc2cccc(CO/N=C(/c3ccccc3)c3noc(=O)n3C)n2)c1 [Example 327]
Eff. % (Phytophthora infestans [3]): 100%
Eff. % (Plasmopara viticola): 95%
LogP [2]: 4.06 [a]

Cc1ccc(C)c(C(=O)Nc2nc(CO/N=C(/c3ccccc3)c3noc(=O)n3C)cs2)c1 [Example 336]
Eff. % (Phytophthora infestans [3]): 99%
Eff. % (Plasmopara viticola): 91%
LogP [2]: 3.94 [a]

CC(C)CC(=O)Nc1cccc(CO/N=C(/c2ccccc2)c2noc(=O)n2C)n1 [Example 340]
Eff. % (Phytophthora infestans [3]): 100%
Eff. % (Plasmopara viticola): 79%
LogP [2]: 3.44 [a]

C#CCCOC(=O)Nc1cccc(CO/N=C(/c2cccc(C)c2)c2noc(=O)n2C)n1 [Example 343]
Eff. % (Phytophthora infestans [3]): 100%
Eff. % (Plasmopara viticola): 95%
LogP [2]: 3.59 [a]

Cc1cccc(C(=O)Nc2cccc(CO/N=C(/c3ccccc3)c3noc(=O)n3C)n2)c1 [Example 344]
Eff. % (Phytophthora infestans [3]): 100%
Eff. % (Plasmopara viticola): 93%
LogP [2]: 3.87 [a]

Cn1c(/C(=N\OCc2cccc(NC(=O)c3ccc(Cl)c(Cl)c3)n2)c2ccccc2)noc1=O [Example 352]
Eff. % (Phytophthora infestans [3]): 100%
Eff. % (Plasmopara viticola): 79%
LogP [2]: 4.54 [a]

CCCCCC(=O)Nc1cccc(CO/N=C(/c2cccc(C)c2)c2noc(=O)n2C)n1 [Example 355]
Eff. % (Phytophthora infestans [3]): 100%
Eff. % (Plasmopara viticola): 75%
LogP [2]: 4.24 [a]

Cn1c(/C(=N\OCc2cccc(NC(=O)CC3CCCC3)n2)c2ccccc2)noc1=O [Example 365]
Eff. % (Phytophthora infestans [3]): 100%
Eff. % (Plasmopara viticola): 98%
LogP [2]: 3.92 [a]

CCCCCC(=O)Nc1cccc(CO/N=C(/c2cccc(F)c2)c2noc(=O)n2C)n1 [Example 376]
Eff. % (Phytophthora infestans [3]): 100%
Eff. % (Plasmopara viticola): 93%
LogP [2]: 3.99 [a]

Cn1c(/C(=N\OCc2csc(NC(=O)Cc3ccccc3)n2)c2ccccc2)noc1=O [Example 378]
Eff. % (Phytophthora infestans [3]): 100%
Eff. % (Plasmopara viticola): 95%
LogP [2]: 3.37 [a]

Cn1c(/C(=N\OCc2cccc(NC(=O)c3cccc(Br)c3)n2)c2ccccc2)noc1=O [Example 380]
Eff. % (Phytophthora infestans [3]): 93%
Eff. % (Plasmopara viticola): 95%
LogP [2]: 4.16 [a]

Cn1c(/C(=N\OCc2cccc(NC(=O)CCC3CCC3)n2)c2ccccc2)noc1=O [Example 389]
Eff. % (Phytophthora infestans [3]): 99%
Eff. % (Plasmopara viticola): 100%
LogP [2]: 4.02 [a]

Cc1ccc(C(=O)Nc2cccc(CO/N=C(/c3ccccc3)c3noc(=O)n3C)n2)cc1C [Example 401]
Eff. % (Phytophthora infestans [3]): 99%
Eff. % (Plasmopara viticola): 90%
LogP [2]: 4.16 [a]

Cn1c(/C(=N\OCc2cccc(NC(=O)CCCCCl)n2)c2ccccc2)noc1=O [Example 404]
Eff. % (Phytophthora infestans [3]): 98%
Eff. % (Plasmopara viticola): 87%
LogP [2]: 3.44 [a]
